Tests used:
FTase = target: T1, FTase (Homo sapiens, UniProt P49356); experiment: FTase activity in PBMC lysates of patients (lamin B or K-Ras substrate), PK/PD Emax model; type: in vivo
T1 construct: endogenous in cells; host or cells: peripheral blood mononuclear cells (PBMCs) of treated patients, lysed
Experimental: Prior to and 2 h after intake on days 1, 2 (only predose), 8 and 22, whole-blood samples of 22.5 ml were collected in heparinised tubes for FTase activity determination in peripheral blood mononuclear cells (PBMCs). Within 30 min, the PBMC fraction was isolated using Accuspin tubes (Sigma). The cell pellet was resuspended in 100 μl lysis buffer (PBS containing 1% (v/v) Triton X-100, 0.5% (w/v) sodium deoxycholate, 0.1% (w/v) sodium dodecylsulphate and 1% (v/v) aprotinin) and stored at −70°C.
FTase activity was measured by adding 5 μl of PBMC lysate, 5 μl of lysis buffer and 10 μl of water to each well. The lysates were preincubated for 10 min prior to the addition of 20 μl of substrate solution (either lamin B or K-Ras). The reaction was initiated by the addition of 10 μl of radiolabelled farnesylpyrophosphate (fpp). The wells were incubated for 40 min at 37°C. The reaction was stopped by the addition of 100 μl of 1.5 M HCl in ethanol. The wells were stored at 4°C for 1 h and then processed using the Tomtec Harvester 96. The filter plates were dried at 37°C for 15 min, 0.35 μl MicroScint was added to each filter well and the radioactivity was counted. Each lysate was analysed in triplicate. Blanks consisted of the same reaction mixture without the substrate.
Linear mixed effects models were constructed to determine the effect of time on the enzyme activity levels. In these models, the daily dose, number of applications, time (days), measurement pre- or postdrug intake, gender and age were considered to be a fixed effect, and the patient variable was considered to be a random effect. Owing to the distribution of the response variables, square root variables were applied. Statistical analysis was performed with SAS. To determine the correlation of the dose level and the enzyme inhibition, a baseline was added to the described models.
Pharmacokinetic-pharmacodynamic correlations between the active acid metabolite and decrease in FTase activity were fitted with WinNonlin software. Only patients with a basal FTase activity that was higher than 10 pg fpp per mg protein per min were included in the model. This cutoff value was arbitrary and was chosen based on the available data (lamin B; mean: 28.0, SD: 14.2, median: 27.8, 25% percentile: 19.1 and K-Ras; mean: 29.3, SD: 17.8, median: 25.6, 25% percentile: 16.7). The decision to set a minimum baseline FTase activity implicates that the model can only be used for patients with a minimum FTase activity of 10 pg fpp per mg protein per min.

[1] = Phase I dose escalation, toxicity (CTC v2.0) in patients with advanced solid malignancies; type: in vivo
Experimental: The study was divided into two parts. Part A was an open-label dose-escalation study to define the maximum tolerated dose (MTD). Part B was an enrichment phase in female patients having advanced breast cancer for whom there was no standard therapy available.
AZD3409 was administered continuously starting on day 1 of each cycle of 21 days. A modified Fibonacci schedule was used for dose escalation, starting from 500 mg AZD3409. […] At least three patients were treated at each dose level. The occurrence of a DLT in a patient during the first cycle led to enrolment of three additional patients. Patients with progressive disease were removed from the study and patients who were removed within the first cycle of the study for reasons other than drug-related toxicity were replaced.
Pretreatment evaluation included a complete medical history and physical examination. Measurable and evaluable disease was documented before the start of the study and during the study as a basis for the assessment of clinical activity of the treatment. Tumour response was recorded according to RECIST criteria ([Therasse et al, 2000]). Toxicity was monitored at each visit. […] DLT was defined as any of the following events during the first treatment cycle: grade 3 or 4 anaemia or thrombocytopaenia, febrile neutropaenia grade 3, or grade 4 neutropaenia, grade 3 or 4 biochemical toxicity, grade 2 (or worse) nausea and vomiting despite optimal antiemetic therapy, grade 3 or 4 diarrhoea despite optimal loperamide support, failure to take study medication for 7 days or more within the first treatment cycle due to drug-related toxicity or any CTC grade 3 or 4 nonhaematological toxicity (excluding alopaecia). The MTD was defined as the dose below the dose at which two or three of three, or two or more of six patients experienced DLT during cycle 1.

[2] = all dose levels, drug-related nonhaematological toxicity
[3] = cycle 1, 250 mg b.i.d. (part B, fed state), 3 patients
[4] = cycle 1, 750 mg b.i.d., 8 patients
[5] = cycle 1, 1250 mg b.i.d., 6 patients
[6] = cycle 1, 1500 mg b.i.d., 2 patients
[7] = cycle 1, 1750 mg b.i.d., 4 patients
[8] = cycle 1, all doses, 29 patients

CSCC[C@H](NC(=O)c1cc(NC[C@@H]2C[C@H](S)CN2)ccc1CCc1ccc(F)cc1)C(=O)O [AZD3409 acid]
plasma concentration at which 90% of the maximal biological effect is reached (FTase; Emax model for lamin B): approximately 100 ng ml^−1 | EC50 (FTase; Emax model, lamin B substrate, PBMC lysate, day 1, 2 h after intake, read-out: EC50 (plasma concentration at 50% of maximal FTase inhibition) (converted)): 18.8 nM | Emax (FTase; human, Emax model, lamin B substrate, PBMC lysate, day 1, 2 h after intake, vs AZD3409 acid plasma concentration, read-out: maximal effect (Emax), maximal FTase inhibition): 49 ± 11% | share of the maximally achievable FTase inhibition at mean trough concentrations (FTase; twice daily dosing levels, Emax model lamin B): at least 75% | chance to suffer from vomiting (grade 1–2) due to the medication ([1]; at maximal AZD3409 acid plasma concentrations up to 140 ng ml^−1, cycle 1, n=22): below 15%

CSCC[C@H](NC(=O)c1cc(NC[C@@H]2C[C@H](SC(=O)c3cccnc3)CN2)ccc1CCc1ccc(F)cc1)C(=O)OC(C)C [AZD3409]
degree of FTase inhibition in PBMCs after intake vs prior to intake (FTase; each day, lamin B and K-Ras substrates, mixed effects model): significantly higher than prior to intake | dose-limiting gastrointestinal toxicity (grade 3 diarrhoea, grade 3 dehydration, grade 2/3 nausea, grade 2 vomiting) ([1]; 1250 mg b.i.d.): three out of six patients | dose-limiting toxicity: unable to continue due to grade 3 diarrhoea and uncontrolled nausea (grade 2), respectively ([1]; 1500 mg b.i.d.): two patients | dose-limiting toxicity: unable to take the drug due to CTC grade 2 vomiting in spite of antiemetics ([1]; 1750 mg b.i.d.): two patients | diarrhoea, patients reporting [1, 2]: 41% | nausea, patients reporting [1, 2]: 55% | vomiting, patients reporting [1, 2]: 55% | haematological toxicity ([1]; cycle 1, 29 evaluable patients): No significant haematological toxicity | Nausea grade 1–2, number of patients [1, 3]: 1 | Vomiting grade 1–2, number of patients [1, 3]: 2 | Anorexia grade 1–2, number of patients ([1]; cycle 1, 500 mg, 3 patients): 1 | Fatigue grade 1–2, number of patients ([1]; cycle 1, 500 mg, 3 patients): 1 | Nausea grade 1–2, number of patients ([1]; cycle 1, 500 mg, 3 patients): 1 | Vomiting grade 1–2, number of patients ([1]; cycle 1, 500 mg, 3 patients): 1 | Abdominal pain grade 1–2, number of patients [1, 4]: 1 | Anorexia grade 1–2, number of patients [1, 4]: 2 | Diarrhoea grade 1–2, number of patients [1, 4]: 3 | Fatigue grade 1–2, number of patients [1, 4]: 2 | Nausea grade 1–2, number of patients [1, 4]: 5 | Vomiting grade 1–2, number of patients [1, 4]: 4 | Diarrhoea grade 1–2, number of patients ([1]; cycle 1, 1000 mg, 3 patients): 3 | Nausea grade 1–2, number of patients ([1]; cycle 1, 1000 mg, 3 patients): 2 | Vomiting grade 1–2, number of patients ([1]; cycle 1, 1000 mg, 3 patients): 2 | Abdominal pain grade 1–2, number of patients [1, 5]: 2 | Anorexia grade 1–2, number of patients [1, 5]: 1 | Diarrhoea grade 1–2, number of patients [1, 5]: 2 | Diarrhoea grade 3–4, number of patients [1, 5]: 1 | Fatigue grade 1–2, number of patients [1, 5]: 1 | Nausea grade 1–2, number of patients [1, 5]: 3 | Nausea grade 3–4, number of patients [1, 5]: 1 | Vomiting grade 1–2, number of patients [1, 5]: 3 | Diarrhoea grade 3–4, number of patients [1, 6]: 1 | Nausea grade 1–2, number of patients [1, 6]: 1 | Vomiting grade 1–2, number of patients [1, 6]: 1 | Anorexia grade 1–2, number of patients [1, 7]: 2 | Diarrhoea grade 1–2, number of patients [1, 7]: 4 | Fatigue grade 1–2, number of patients [1, 7]: 1 | Nausea grade 1–2, number of patients [1, 7]: 3 | Vomiting grade 1–2, number of patients [1, 7]: 3 | Abdominal pain grade 1–2, total [1, 8]: 3 (10) n (%) | Anorexia grade 1–2, total [1, 8]: 6 (21) n (%) | Diarrhoea grade 1–2, total [1, 8]: 12 (41) n (%) | Diarrhoea grade 3–4, total [1, 8]: 2 (7) n (%) | Fatigue grade 1–2, total [1, 8]: 5 (17) n (%) | Nausea grade 1–2, total [1, 8]: 16 (55) n (%) | Nausea grade 3–4, total [1, 8]: 1 (3) n (%) | Vomiting grade 1–2, total [1, 8]: 16 (55) n (%) | MTD of part A ([1]; patients, fasted state, continuous oral dosing): 750 mg b.i.d.
